Laboratory results as given in patent US20240050457A1 (UROVANT SCIENCES GMBH, priority 2020, published 2024).
Where two headings read alike, the source gives them in different places.

Columns and labels:
[1] = for Tmax, median: healthy subjects, 18
Experimental: (§1) An open-label, single-dose and multiple-dose, two-period, two-treatment single-sequence drug-drug interaction study was conducted. All subjects received Treatment A during Period 1 and Treatment B during Period 2.
(§2) Samples were stored in polypropylene tubes and kept frozen at approximately −20° C. prior to analysis. A 150-μL matrix aliquot was fortified with 20 μL of 40.0 ng/mL internal standard working solution. Analytes were isolated using an Isolute SLE+ (200-mg) supported liquid extraction 96-well plate and eluted with 800 μL of methylene chloride. The eluate was evaporated under a nitrogen stream at approximately 45° C., and the remaining residue was reconstituted with 250 μL of 90:10:40:0.7 water/methanol/acetonitrile/1.0 M ammonium acetate, v/v/v/v. The final extract was analyzed via HPLC with column-switching and MS/MS detection using positive ion electrospray. Extracts were analyzed by HPLC MS/MS using positive ion electrospray.

clinical = details: human, plasma, po, 0.25 mg
Experimental: as §1, §2

β3-AR = β3-AR (Homo sapiens, UniProt P13945); details: cell based in vitro assays; cited from earlier work
cytochrome P450 = details: cited from earlier work

Chain of β3-AR (P13945 whole entry): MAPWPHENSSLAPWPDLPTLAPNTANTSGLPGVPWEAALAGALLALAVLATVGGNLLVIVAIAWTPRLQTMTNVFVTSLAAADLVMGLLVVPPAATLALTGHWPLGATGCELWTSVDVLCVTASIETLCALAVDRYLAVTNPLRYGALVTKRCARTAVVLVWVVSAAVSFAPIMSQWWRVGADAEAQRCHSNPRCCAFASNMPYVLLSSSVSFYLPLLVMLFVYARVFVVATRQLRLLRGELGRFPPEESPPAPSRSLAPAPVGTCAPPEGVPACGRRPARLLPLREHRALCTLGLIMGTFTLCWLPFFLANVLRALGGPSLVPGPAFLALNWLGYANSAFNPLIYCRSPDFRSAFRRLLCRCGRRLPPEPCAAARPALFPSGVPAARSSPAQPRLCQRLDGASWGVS

| SMILES | Tmax, median ([1]; Digoxin 0.25 mg × 1 dose with vibegron (150 mg × 1 dose + 100 mg × 5 doses)) | Tmax, median ([1]; Digoxin alone, 0.25 mg single dose oral tablet) | change of half-life (T1/2) ([1]; group receiving digoxin+vibegron compared to group receiving digoxin alone) | AUC(0-inf) (clinical) [ng·h/mL] | Cmax (clinical) [ng/mL] | half-life (clinical) [h] | selectivity for activation of β3-AR over β2-AR and β1-AR (β3-AR) | inhibitor of major enzymes produced from the cytochrome P450 genes (cytochrome P450) |
| --- | --- | --- | --- | --- | --- | --- | --- | --- |
| C[C@H]1O[C@@H](O[C@H]2[C@@H](O)C[C@H](O[C@H]3[C@@H](O)C[C@H](O[C@H]4CC[C@@]5(C)[C@H](CC[C@@H]6[C@@H]5C[C@@H](O)[C@]5(C)[C@@H](C7=CC(=O)OC7)CC[C@]65O)C4)O[C@@H]3C)O[C@@H]2C)C[C@H](O)[C@@H]1O [Digoxin] | 1.00 | 1.00 | increase | 17.2 | 1.24 | 36.8 | – | – |
| O=C(Nc1ccc(C[C@@H]2CC[C@H]([C@H](O)c3ccccc3)N2)cc1)[C@@H]1CCc2nccc(=O)n21 [Vibegron, (6S)—N-[4-[[(2S,5R)-5-[(R)-hydroxy(phenyl)methyl]pyrrolidin-2-yl]methyl]phenyl]-4-oxo-7,8-dihydro-6H-pyrrolo[1,2-a]pyrimidine-6-carboxamide] | – | – | – | – | – | – | > 9,000 fold | not an inhibitor |
